Experimental data reported in patent US20220193181A1 (priority 2020, published 2022).

Key:
[1] = system: SARS-CoV-1; conditions: Vero E6 cells; cited from earlier work
[2] = molecular target: T1, clotting factor X111 (Homo sapiens, UniProt P00488); conditions: cited from earlier work
T1 sequence (P00488 1-732): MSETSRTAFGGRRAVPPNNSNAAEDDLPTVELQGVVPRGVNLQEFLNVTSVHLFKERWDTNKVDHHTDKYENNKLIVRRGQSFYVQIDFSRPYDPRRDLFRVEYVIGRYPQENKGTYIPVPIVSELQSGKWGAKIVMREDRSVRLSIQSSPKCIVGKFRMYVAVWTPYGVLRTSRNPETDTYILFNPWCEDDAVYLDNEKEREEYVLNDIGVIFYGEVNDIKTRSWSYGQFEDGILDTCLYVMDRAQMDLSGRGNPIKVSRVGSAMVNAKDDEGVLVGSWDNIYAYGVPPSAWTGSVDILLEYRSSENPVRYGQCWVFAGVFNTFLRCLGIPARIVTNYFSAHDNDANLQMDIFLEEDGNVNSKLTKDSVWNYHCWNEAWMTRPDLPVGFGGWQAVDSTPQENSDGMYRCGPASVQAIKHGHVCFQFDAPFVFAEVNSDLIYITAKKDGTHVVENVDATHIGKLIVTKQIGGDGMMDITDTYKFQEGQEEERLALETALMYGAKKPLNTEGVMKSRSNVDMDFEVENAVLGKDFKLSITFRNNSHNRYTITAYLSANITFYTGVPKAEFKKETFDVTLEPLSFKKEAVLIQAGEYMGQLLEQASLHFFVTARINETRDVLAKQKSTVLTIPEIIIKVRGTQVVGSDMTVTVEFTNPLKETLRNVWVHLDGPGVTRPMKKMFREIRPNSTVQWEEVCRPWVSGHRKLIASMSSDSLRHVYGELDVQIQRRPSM

[3] = system: vascular inflammation; conditions: previously reported by the inventors; cited from earlier work
[4] = system: platelet aggregation; conditions: cited from earlier work
[5] = system: Spike S1 treated mice
[6] = molecular target: GSNO reductase (Homo sapiens, UniProt P11766); conditions: cited from earlier work
Sequence of GSNO reductase (P11766 whole entry): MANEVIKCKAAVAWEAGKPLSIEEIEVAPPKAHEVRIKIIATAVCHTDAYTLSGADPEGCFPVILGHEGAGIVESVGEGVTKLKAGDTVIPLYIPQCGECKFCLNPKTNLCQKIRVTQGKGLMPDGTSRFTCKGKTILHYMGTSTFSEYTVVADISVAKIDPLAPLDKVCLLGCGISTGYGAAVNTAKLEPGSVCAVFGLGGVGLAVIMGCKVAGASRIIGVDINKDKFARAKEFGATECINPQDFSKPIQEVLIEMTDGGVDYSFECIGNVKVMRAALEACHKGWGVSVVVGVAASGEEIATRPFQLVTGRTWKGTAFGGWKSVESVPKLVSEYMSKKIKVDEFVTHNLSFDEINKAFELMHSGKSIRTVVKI

[7] = system: EAE mice; experiment: Adoptive transfer of B cells from N6022-treated mice to EAE mice
[8] = system: SARS-CoV-2 patients; conditions: cited from earlier work
[9] = B cells from N6022-treated EAE mice
[10] = B cells from N6022-treated non-EAE mice

## CC(=O)N[C@@H](C(=O)O)C(C)(C)SN=O (racemic) [SNAP, reference compound]
[1]
  viral protein and vRNA synthesis and replication of SARS-CoV-1: inhibit
[2]
  clot formation: inhibited
  clotting factor X111 (transglutaminase) activity: inhibited

## N[C@@H](CCC(=O)N[C@@H](CSN=O)C(=O)NCC(=O)O)C(=O)O [GSNO, S-nitrosoglutathione]
[3]
  vascular inflammation: inhibit
  vascular integrity: protect
[4]
  platelet aggregation: inhibit
[2]
  clot formation: inhibited
  clotting factor X111 (transglutaminase) activity: inhibited
[5]; greater effects on Th17 cells
  Spike S1 induced T cell responses (Th1 and Th17 cells) in spleen: down regulated
[5]; mouse, in vivo
  IL-6 positive B cells in spleen: decreased
  IL-10 positive B cells in spleen: increased
  Treg cells in spleen: practically no effect

## Cc1cc(C(N)=O)ccc1-n1c(CCC(=O)O)ccc1-c1ccc(-n2ccnc2)cc1 [N6022]
[3]
  vascular inflammation: inhibit
  vascular integrity: protect
[6]
  GSNO reductase inhibition: potent and reversible
[7]; [9]
  TH17 cells in the CNS of recipients: decreased
  blood IL-6 levels of recipients: decreased
  blood IL-10 levels of recipients: increased
  number of Treg cells in the CNS of recipients: increased
[7]; [10]
  blood cytokine levels and CNS Treg and TH17 cells of recipients: no significant alterations
  disease of recipient EAE mice: no disease attenuation

## TCZ: IL6 receptor antibody that blocks IL-6 signaling
[8]; in vivo
  patients in whom the optical lung lesion on CT scan resolved: 90.5%
  patients whose lymphocyte counts returned to normal: 53%
  patients with improved oxygenation: 75%
[8]; within a few days
  reducing fever: effective
